The Kinase Knowledgebase extract (Sharma et al. 2016)

Biological target: PIK3CG (human) (UniProt P48736)
Test: Inhibition of PIK3CG Kinase Activity

Sequence of PIK3CG (human) (P48736 whole entry, looked up): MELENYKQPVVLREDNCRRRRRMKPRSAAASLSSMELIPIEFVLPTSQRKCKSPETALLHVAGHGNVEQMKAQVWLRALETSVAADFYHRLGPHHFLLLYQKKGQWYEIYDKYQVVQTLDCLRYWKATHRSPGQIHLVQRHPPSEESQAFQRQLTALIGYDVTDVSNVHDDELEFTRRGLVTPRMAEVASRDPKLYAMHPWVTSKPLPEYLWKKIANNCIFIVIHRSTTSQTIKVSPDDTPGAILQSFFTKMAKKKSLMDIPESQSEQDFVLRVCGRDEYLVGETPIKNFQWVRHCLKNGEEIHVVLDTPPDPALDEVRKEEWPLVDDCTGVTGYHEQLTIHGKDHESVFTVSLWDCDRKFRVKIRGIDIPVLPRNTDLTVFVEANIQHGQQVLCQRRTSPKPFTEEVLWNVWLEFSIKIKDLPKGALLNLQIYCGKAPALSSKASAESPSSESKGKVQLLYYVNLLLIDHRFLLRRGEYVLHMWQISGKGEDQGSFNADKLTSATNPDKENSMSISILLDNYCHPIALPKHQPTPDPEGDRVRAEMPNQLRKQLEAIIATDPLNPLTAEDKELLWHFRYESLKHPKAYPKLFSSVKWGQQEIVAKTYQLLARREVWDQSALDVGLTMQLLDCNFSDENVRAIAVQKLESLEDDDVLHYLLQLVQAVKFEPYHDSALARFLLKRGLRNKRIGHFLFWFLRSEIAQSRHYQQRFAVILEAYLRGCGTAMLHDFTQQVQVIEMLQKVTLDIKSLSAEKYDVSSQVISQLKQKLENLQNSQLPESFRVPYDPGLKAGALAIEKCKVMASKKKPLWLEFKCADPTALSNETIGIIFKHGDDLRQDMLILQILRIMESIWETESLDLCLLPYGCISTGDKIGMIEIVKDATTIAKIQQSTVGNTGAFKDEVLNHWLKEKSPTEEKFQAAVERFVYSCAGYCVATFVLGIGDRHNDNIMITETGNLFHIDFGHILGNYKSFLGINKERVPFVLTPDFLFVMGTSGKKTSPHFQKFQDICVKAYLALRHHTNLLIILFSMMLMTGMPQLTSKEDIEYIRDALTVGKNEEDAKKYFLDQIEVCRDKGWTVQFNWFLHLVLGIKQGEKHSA

IC50 [nM] | SMILES
< 800 | CCCn1ccc(CNC(=O)Nc2nc3c(s2)-c2c(cnn2-c2ccccc2C(F)(F)F)C3)n1
< 800 | CC(C)CNC(=O)Nc1nc2c(s1)-c1c(cnn1-c1ccccc1Cl)C2
< 800 | CC(C)(CCn1c(=O)[nH]c2ccccc21)NC(=O)Nc1nc2c(s1)-c1c(cnn1-c1ccccc1C(F)(F)F)C2
< 800 | O=C(NCCN1CCOCC1)Nc1nc2c(s1)-c1c(cnn1-c1ccccc1Br)C2
< 800 | Nc1cc(CCNC(=O)Nc2nc3c(s2)-c2c(cnn2-c2ccccc2C(F)(F)F)C3)nn1C1CCN(Cc2ccccc2)CC1
< 800 | N#CCCn1nc(CCNC(=O)Nc2nc3c(s2)-c2c(cnn2-c2ccccc2C(F)(F)F)C3)cc1N
< 800 | Cn1cc(CCNC(=O)Nc2nc3c(s2)-c2c(cnn2-c2ccccc2C(F)(F)F)C3)cn1
< 800 | CC(NC(=O)Nc1nc2c(s1)-c1c(cnn1-c1ccccc1Cl)C2)c1cccc(NC(=O)OC(C)(C)C)c1 (stereo not drawn)
< 800 | O=C(NCc1ccsc1)Nc1nc2c(s1)-c1c(cnn1-c1ccccc1C(F)(F)F)C2
< 800 | Cn1nc(CCNC(=O)Nc2nc3c(s2)-c2c(cnn2-c2ccccc2C(F)(F)F)C3)cc1N
< 800 | O=C(O)[C@H]1[C@H](c2ccccc2)CCN1C(=O)Nc1nc2c(s1)-c1c(cnn1-c1ccccc1Cl)C2
< 800 | O=C(O)CCCNC(=O)Nc1nc2c(s1)-c1c(cnn1-c1ccccc1C(F)(F)F)C2
< 800 | CN(C)C(=O)CNC(=O)Nc1nc2c(s1)-c1c(cnn1-c1ccccc1C(F)(F)F)C2
< 800 | CCNC(=O)Nc1nc2c(s1)-c1c(cnn1-c1cc(Cl)ccc1Cl)C2
< 800 | CCCNC(=O)Nc1nc2c(s1)-c1c(cnn1-c1ccccc1Cl)C2
< 800 | CCCNC(=O)Nc1nc2c(s1)-c1c(cnn1-c1cccc(F)c1C(F)(F)F)C2
< 800 | CNC(=O)Nc1nc2c(s1)-c1c(cnn1-c1cc(Cl)ccc1Cl)C2
< 800 | O=C(NCc1nnn[nH]1)Nc1nc2c(s1)-c1c(cnn1-c1ccccc1C(F)(F)F)C2
< 800 | CCn1cnc(CCNC(=O)Nc2nc3c(s2)-c2c(cnn2-c2ccccc2Cl)C3)c1

IC50 [nM] | SMILES
< 800 | CCn1cnc(CCNC(=O)Nc2nc3c(s2)-c2c(cnn2-c2cc(F)ccc2C(F)(F)F)C3)c1
< 800 | CCOC(Cn1nc(CCNC(=O)Nc2nc3c(s2)-c2c(cnn2-c2ccccc2C(F)(F)F)C3)cc1N)OCC
< 800 | CC(C)(C)OC(=O)N[C@H]1CC[C@H](CNC(=O)Nc2nc3c(s2)-c2c(cnn2-c2ccccc2Cl)C3)CC1
< 800 | CC(C)(C)CNC(=O)Nc1nc2c(s1)-c1c(cnn1-c1ccccc1Cl)C2
< 800 | CCn1cc(CNC(=O)Nc2nc3c(s2)-c2c(cnn2-c2ccccc2C(F)(F)F)C3)cn1
< 800 | O=C(NCc1ccccn1)Nc1nc2c(s1)-c1c(cnn1-c1ccccc1C(F)(F)F)C2
< 800 | CN(C)CCNC(=O)Nc1nc2c(s1)-c1c(cnn1-c1ccccc1C(F)(F)F)C2
< 800 | C=CCn1cnc(CCNC(=O)Nc2nc3c(s2)-c2c(cnn2-c2ccccc2C(F)(F)F)C3)c1
< 800 | CNC(=O)c1ccc(-n2ncc3c2-c2sc(NC(=O)NCc4cc(C5CC5)n[nH]4)nc2C3)c(C(F)(F)F)c1
< 800 | CCOC(=O)CCNC(=O)Nc1nc2c(s1)-c1c(cnn1-c1ccccc1Br)C2
< 800 | CC1(C)NC(=O)N(Cc2ccc(CNC(=O)Nc3nc4c(s3)-c3c(cnn3-c3ccccc3Cl)C4)cc2)C1=O
< 800 | COc1ccccc1C1CCN(C(=O)Nc2nc3c(s2)-c2c(cnn2-c2ccccc2Cl)C3)C1 (stereo not drawn)
< 800 | CC(C)n1nc(CCNC(=O)Nc2nc3c(s2)-c2c(cnn2-c2ccccc2C(F)(F)F)C3)cc1N
< 800 | O=C(NCc1ccccc1)Nc1nc2c(s1)-c1c(cnn1-c1ccccc1Cl)C2
< 800 | O=C(C[C@H]1CCCN1C(=O)OCc1ccccc1)Nc1nc2c(s1)-c1c(cnn1-c1ccccc1Cl)C2
< 800 | O=C(Nc1nc2c(s1)-c1c(cnn1-c1ccccc1Cl)C2)N1CCC(n2cnc3ccccc32)CC1
< 800 | CC(C)(C)OC(=O)CC1(O)CCN(C(=O)Nc2nc3c(s2)-c2c(cnn2-c2ccccc2Cl)C3)CC1
< 800 | CCn1nc(CNC(=O)Nc2nc3c(s2)-c2c(cnn2-c2ccccc2C(F)(F)F)C3)cc1N
< 800 | O=C(NCC1CC1)Nc1nc2c(s1)-c1c(cnn1-c1ccccc1C(F)(F)F)C2
